Data published in patent publication US10370727B2, “Point mutations in TRK inhibitor-resistant cancer and methods relating to the same” (Loxo Oncology, Inc., priority 2015, dated 2019).

Experiments:
Assay in all cases: Trk enzyme assay ([33P] incorporation into poly-EAY)
Type in all cases: biochemical
[1] = molecular target: TrkC WT (Homo sapiens, UniProt Q16288, S70N); conditions: wild-type TrkC enzyme; 22° C., 60 minutes
Description: (§1) The assays were conducted in 96-well polypropylene v-bottom microtitre plates (Corning, Costar® 3363) in a total volume of 50 μL. […] The radiolabeled product was then captured on glass fiber filter plates (PerkinElmer, Unifilter®-96, GF/B®) and washed with 5% phosphoric acid to remove unbound radiolabel using a Tomtec MACH III Harvester 96®. After adding 35 μL/well of Bio-Safe II™ liquid scintillation cocktail (Research Products International), the plates were counted in a TopCount NXT (PerkinElmer) using a counting time of 30 s/well. The activity at each concentration of compound was expressed as percent of control (POC) and plotted versus compound concentration.

[2] = molecular target: TrkB G623R (Homo sapiens, UniProt Q16620, G623R); conditions: mutant TrkB G623R enzyme; 22° C., 60 minutes
Sequence of TrkB G623R (Q16620 32-822 G623R): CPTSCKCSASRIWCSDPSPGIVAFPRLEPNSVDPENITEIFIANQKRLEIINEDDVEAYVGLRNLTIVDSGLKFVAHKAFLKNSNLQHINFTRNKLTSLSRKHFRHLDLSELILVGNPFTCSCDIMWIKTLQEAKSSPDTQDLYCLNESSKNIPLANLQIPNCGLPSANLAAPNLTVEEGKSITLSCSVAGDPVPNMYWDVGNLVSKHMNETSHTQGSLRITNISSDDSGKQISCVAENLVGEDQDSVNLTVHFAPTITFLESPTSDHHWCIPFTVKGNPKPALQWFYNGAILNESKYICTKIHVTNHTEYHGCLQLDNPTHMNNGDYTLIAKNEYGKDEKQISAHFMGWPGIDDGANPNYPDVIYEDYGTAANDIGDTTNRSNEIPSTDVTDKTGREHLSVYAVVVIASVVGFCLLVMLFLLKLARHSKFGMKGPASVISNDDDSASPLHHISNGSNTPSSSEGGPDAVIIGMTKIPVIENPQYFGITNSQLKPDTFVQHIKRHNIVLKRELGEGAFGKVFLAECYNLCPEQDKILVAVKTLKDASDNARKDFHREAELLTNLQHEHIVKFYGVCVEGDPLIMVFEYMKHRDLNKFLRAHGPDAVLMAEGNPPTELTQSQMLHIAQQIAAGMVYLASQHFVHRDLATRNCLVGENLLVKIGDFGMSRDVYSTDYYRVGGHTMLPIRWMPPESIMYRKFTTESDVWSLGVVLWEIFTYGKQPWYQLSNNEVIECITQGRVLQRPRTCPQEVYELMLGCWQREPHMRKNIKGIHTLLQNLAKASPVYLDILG
Description: as §1

[3] = molecular target: TrkB WT (Homo sapiens, UniProt Q16620); conditions: wild-type TrkB enzyme; 22° C., 60 minutes
Sequence of TrkB WT (Q16620 32-822): as the sequence (Q16620 32-822 G623R) above, with R592G counted along it
Description: as §1

[4] = molecular target: TrkC F617L (Homo sapiens, UniProt Q16288, F617L/S70N); conditions: mutant TrkC F617L enzyme; 22° C., 60 minutes
Sequence of TrkC F617L (Q16288 32-839 S70N/F617L): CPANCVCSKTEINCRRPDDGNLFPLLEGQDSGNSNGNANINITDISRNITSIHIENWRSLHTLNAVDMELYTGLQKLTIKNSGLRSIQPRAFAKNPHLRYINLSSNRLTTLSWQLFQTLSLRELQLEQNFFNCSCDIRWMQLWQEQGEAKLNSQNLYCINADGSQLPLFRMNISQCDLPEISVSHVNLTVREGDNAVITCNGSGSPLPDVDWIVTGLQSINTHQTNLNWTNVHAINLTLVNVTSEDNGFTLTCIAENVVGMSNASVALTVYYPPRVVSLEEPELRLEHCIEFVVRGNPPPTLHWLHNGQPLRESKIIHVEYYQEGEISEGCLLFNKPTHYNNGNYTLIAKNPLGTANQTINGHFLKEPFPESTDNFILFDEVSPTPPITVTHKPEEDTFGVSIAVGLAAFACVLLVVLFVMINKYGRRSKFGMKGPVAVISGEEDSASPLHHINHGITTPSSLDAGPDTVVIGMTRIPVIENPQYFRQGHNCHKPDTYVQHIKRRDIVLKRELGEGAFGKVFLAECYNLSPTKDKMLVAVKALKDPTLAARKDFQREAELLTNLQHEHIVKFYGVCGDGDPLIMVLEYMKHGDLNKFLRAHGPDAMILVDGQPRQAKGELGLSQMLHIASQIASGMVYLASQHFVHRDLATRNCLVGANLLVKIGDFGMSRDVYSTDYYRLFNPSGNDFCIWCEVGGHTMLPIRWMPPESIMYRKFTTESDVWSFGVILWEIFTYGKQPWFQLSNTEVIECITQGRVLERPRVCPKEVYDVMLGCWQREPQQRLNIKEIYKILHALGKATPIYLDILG
Description: as §1

[5] = molecular target: TrkC G623R (Homo sapiens, UniProt Q16288, G623R/S70N); conditions: mutant TrkC G623R enzyme; 22° C., 60 minutes
Sequence of TrkC G623R (Q16288 32-839 S70N/G623R): as the sequence (Q16288 32-839 S70N/F617L) above, with L586F, G592R counted along it
Description: The radiolabeled product was then captured on glass fiber filter plates (PerkinElmer, Unifilter®-96, GF/B®) and washed with 5% phosphoric acid to remove unbound radiolabel using a Tomtec MACH III Harvester 96®. After adding 35 μL/well of Bio-Safe II™ liquid scintillation cocktail (Research Products International), the plates were counted in a TopCount NXT (PerkinElmer) using a counting time of 30 s/well. The activity at each concentration of compound was expressed as percent of control (POC) and plotted versus compound concentration.

[6] = molecular target: TrkA G595R (Homo sapiens, UniProt P04629, G595R); conditions: mutant TrkA G595R enzyme; 22° C., 60 minutes
Sequence of TrkA G595R (P04629 33-796 G595R): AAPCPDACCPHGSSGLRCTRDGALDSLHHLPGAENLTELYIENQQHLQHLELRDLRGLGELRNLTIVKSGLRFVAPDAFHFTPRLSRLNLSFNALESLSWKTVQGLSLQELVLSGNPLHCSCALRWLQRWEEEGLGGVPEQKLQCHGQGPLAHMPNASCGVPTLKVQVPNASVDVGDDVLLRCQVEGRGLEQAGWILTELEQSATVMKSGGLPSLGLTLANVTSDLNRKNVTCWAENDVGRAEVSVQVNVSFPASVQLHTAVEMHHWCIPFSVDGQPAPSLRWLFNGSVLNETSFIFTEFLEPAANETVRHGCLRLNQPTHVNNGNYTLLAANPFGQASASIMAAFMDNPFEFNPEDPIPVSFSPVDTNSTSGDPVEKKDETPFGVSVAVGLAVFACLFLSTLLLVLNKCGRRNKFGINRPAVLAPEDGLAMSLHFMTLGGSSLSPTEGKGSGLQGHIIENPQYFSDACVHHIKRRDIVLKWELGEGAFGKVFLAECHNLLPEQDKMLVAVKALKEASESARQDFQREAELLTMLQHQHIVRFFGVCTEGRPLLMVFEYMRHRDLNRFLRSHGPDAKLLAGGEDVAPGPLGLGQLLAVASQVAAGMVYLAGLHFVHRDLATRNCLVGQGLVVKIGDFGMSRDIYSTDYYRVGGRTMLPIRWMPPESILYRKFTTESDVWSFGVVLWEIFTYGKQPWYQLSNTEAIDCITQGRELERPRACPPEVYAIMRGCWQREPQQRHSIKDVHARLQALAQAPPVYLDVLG
Description: (§2) The activity of the various Trk compounds exemplified in Table 6 was determined by monitoring the incorporation of [^33P]PO4 from [γ-^33P]ATP into poly-EAY (Sigma-Aldrich, P3899).
as §1

[7] = molecular target: TrkA G667S (Homo sapiens, UniProt P04629, G667S); conditions: mutant TrkA G667S enzyme; 22° C., 60 minutes
Sequence of TrkA G667S (P04629 33-796 G667S): as the sequence (P04629 33-796 G595R) above, with R563G, G635S counted along it
Description: as §2, §1

[8] = molecular target: TrkA V573M (Homo sapiens, UniProt P04629, V573M); conditions: mutant TrkA V573M enzyme; 22° C., 60 minutes
Sequence of TrkA V573M (P04629 33-796 V573M): as the sequence (P04629 33-796 G595R) above, with V541M, R563G counted along it
Description: as §2, §1

[9] = molecular target: TrkA F589L (Homo sapiens, UniProt P04629, F589L); conditions: mutant TrkA F589L enzyme; 22° C., 60 minutes
Sequence of TrkA F589L (P04629 33-796 F589L): as the sequence (P04629 33-796 G595R) above, with F557L, R563G counted along it
Description: as §2, §1

[10] = molecular target: TrkA WT (Homo sapiens, UniProt P04629); conditions: wild-type TrkA enzyme; 22° C., 60 minutes
Sequence of TrkA WT (P04629 33-796): as the sequence (P04629 33-796 G595R) above, with R563G counted along it
Description: as §1

[11] = molecular target: TrkA G667C (Homo sapiens, UniProt P04629, G667C); conditions: mutant TrkA G667C enzyme; 22° C., 60 minutes
Sequence of TrkA G667C (P04629 33-796 G667C): as the sequence (P04629 33-796 G595R) above, with R563G, G635C counted along it
Description: as §2, §1

Sequence of TrkC WT (Q16288 32-839 S70N): as the sequence (Q16288 32-839 S70N/F617L) above, with L586F counted along it

| IC50 [1] | IC50 [2] | IC50 [3] | IC50 [4] | IC50 [5] | IC50 [6] | IC50 [7] | IC50 [8] | IC50 [9] | IC50 [10] | IC50 [11] | SMILES |
| --- | --- | --- | --- | --- | --- | --- | --- | --- | --- | --- | --- |
| < 2.5 nM | 47.9 nM | 7 nM | 42.5 nM | 22.7 nM |  |  |  |  |  |  | CC1(O)CN(C(=O)Nc2cnc3ccc(N4CCC[C@@H]4c4cc(F)ccc4F)nn23)C1 [Compound 7, (R)-N-(6-(2-(2,5-difluorophenyl)pyrrolidin-1-yl)imidazo[1,2-b]pyridazin-3-yl)-3-hydroxy-3-methylazetidine-1-carboxamide] |
| < 2.5 nM | 2.7 nM | 3.5 nM | 8.7 nM | 3.1 nM | 3.3 nM | 4.1 nM | 20.9 nM | 37.2 nM | < 0.5 nM | 32.4 nM | O=C(NC1CC1)c1cnn2ccc(N3CCC[C@@H]3c3cncc(F)c3)nc12 [Compound 13, (R)-N-cyclopropyl-5-(2-(5-fluoro-pyridin-3-yl)pyrrolidin-1-yl)pyrazolo [1,5-a]pyrimidine-3-carboxamide] |
| < 2.5 nM | 1.3 nM | 2.9 nM | 5.4 nM | 1.5 nM | 1.5 nM | 0.9 nM | < 5 nM | 8.4 nM | 0.5 nM | 5.7 nM | O=C1OCCOc2ncc(F)cc2[C@H]2CCCN2c2ccn3ncc1c3n2 [Compound 22, (6R)-9-fluoro-13,16-dioxa-2,11,20,21,24-pentaazapentacyclo[16.5.2.0^2,6.0^7,12.0^21,25]-pentacosa-1(24),7,9,11,18(25),19,22-heptaen-17-one] |
| 2.7 nM | 1.1 nM | 6.1 nM | 5.8 nM | 2.1 nM | 1.6 nM | 0.3 nM | < 5 nM | < 1 nM | 0.7 nM | 0.8 nM | O=C1NCC(F)(F)COc2ncc(F)cc2[C@H]2CCCN2c2ccn3ncc1c3n2 [Compound 23, (6R)-9,15,15-trifluoro-13-oxa-2,11,17,21, 22,25-hexaazapentacyclo [17.5.2.0^2,6.0^7,12.0^22,26]hexacosa-1(25),7,9, 11,19(26),20,23-heptaen-18-one] |
| 4 nM | 2.3 nM | 8.7 nM | 8.1 nM | 4.7 nM | 3 nM | 0.5 nM | < 5 nM | 1.1 nM | 1 nM | 1 nM | CC1(C)CNC(=O)c2cnn3ccc(nc23)N2CCC[C@@H]2c2cc(F)cnc2OC1 [Compound 25, (6R)-9-fluoro-15,15-dimethyl-13-oxa-2,11,17,21,22,25-hexaazapentacyclo [17,5.2.0^2,6.0^7,12.0^22,26]hexacosa-1(25),7,9,11,19(26),20,23-heptaen-18-one] |
| < 2.5 nM | 27.5 nM | 5 nM | 49.7 nM | 24.1 nM |  |  |  |  |  |  | CN(CCO)C(=O)Nc1cnc2ccc(N3CCC[C@@H]3c3cc(F)ccc3F)nn12 [Compound 6, (R)-3-(6-(2-(2,5-difluorophenyl)pyrrolidin-1-yl)imidazo[1,2-b]pyridazin-3-yl)-1-(2-hydroxyethyl)-1-methylurea] |
| < 2.5 nM | 104 nM | 4.6 nM | 66.5 nM | 92.6 nM | 91.9 nM | 21.6 nM | 106 nM | 90.7 nM | 0.8 nM | 76.5 nM | O=C(Nc1cnn2ccc(N3CCC[C@@H]3c3cc(F)ccc3Cl)nc12)N1CC(O)C1 [Compound 9, (R)-N-(5-(2-(2-chloro-5-fluorophenyl)pyrrolidin-1-yl)pyrazolo[1,5-a]pyrimidin-3-yl)-3-hydroxyazetidine-1-carboxamide] |
| 4.5 nM | 90 nM | 11.9 nM | 273 nM | 55.7 nM |  |  |  |  |  |  | NC(=O)Nc1cnc2ccc(N3CCC[C@@H]3c3cc(F)ccc3F)nn12 [Compound 3, (R)-1-(6-(2-(2,5-difluorophenyl)pyrrolidin-1-yl)imidazo[1,2-b]pyridazin-3-yl)urea] |
| < 2.5 nM | 1.5 nM | 4.4 nM | 12.4 nM | 2.7 nM | 1.5 nM | 2.8 nM | 12.1 nM | 14.8 nM | < 0.5 nM | 9 nM | CONC(=O)c1cnn2ccc(N3CCC[C@@H]3c3cc(F)cnc3OC)nc12 [Compound 14, (R)-5-(2-(5-fluoro-2-methoxypyridin-3-yl)pyrrolidin-1-yl)-N-methoxy-pyrazolo[1,5-a]pyrimidine-3-carboxamide] |
| < 2.5 nM | 3.1 nM | 3.1 nM | 18.3 nM | 3.1 nM | 2.7 nM | 3.2 nM | 36.5 nM | 48.3 nM | < 0.5 nM | 13.3 nM | O=C1NCCCOc2cccc(n2)[C@H]2CCCN2c2ccn3ncc1c3n2 [Compound 20, (6R)-12-oxa-2,16,20,21,24,26-hexaazapentacyclo[16.5.2.^17,11.0^2,6.0^21,25]-hexacosa-1(24),7(26),8,10,18(25),19,22-heptaen-17-one] |
| < 2.5 nM | 132 nM | 5.9 nM | 154 nM | 95 nM | 84.6 nM | 38.5 nM | 152 nM | 232 nM | 1.1 nM | 141 nM | O=C(Nc1cnn2ccc(N3CCC[C@@H]3c3cc(F)ccc3F)nc12)N1CC(O)C1 [Compound 5, (R)-N-(5-(2-(2,5-difluorophenyl)pyrrolidin-1-yl)pyrazolo[1,5-a]pyrimidin-3-yl)-3-hydroxyazetidine-1-carboxamide] |
| < 2.5 nM | 1.6 nM | < 2.5 nM | < 5 nM | 1.7 nM | 1.6 nM | 1.4 nM | 6.3 nM | 7.3 nM | < 0.5 nM | 8.1 nM | CC1(NC(=O)c2cnn3ccc(N4CCC[C@@H]4c4cncc(F)c4)nc23)CC1 [Compound 15, (R)-5-(2-(5-fluoropyridin-3-yl)pyrrolidin-1-yl)-N-(1-methylcyclopropyl)pyrazolo [1,5-a]pyrimidine-3-carboxamide] |
| < 2.5 nM | 1.8 nM | 3.3 nM | 9.6 nM | 2.6 nM | 2.1 nM | 0.5 nM | < 5 nM | 3.9 nM | 0.6 nM | 1 nM | O=C1NC[C@H](O)COc2ccc(F)cc2[C@H]2CC(F)(F)CN2c2ccn3ncc1c3n2 [Compound 26, (15S)-4,4,9-trifluoro-15-hydroxy-13-oxa-2,17,21,22.25-pentaazapentacyclo [17.5.2.0^2,6.0^7,12.0^22,26]hexacosa-1(25),7(12),8,10,19(26),20,23-heptaen-18-one] |
| < 2.5 nM | 59.7 nM | 5.7 nM | 58 nM | 29.3 nM |  |  |  |  |  |  | O=C(Nc1cnc2ccc(N3CCC[C@@H]3c3cc(F)ccc3F)nn12)N1CC(O)C1 [Compound 1, (R)-N-(6-(2-(2,5-difluorophenyl)pyrrolidin-1-yl)imidazo[1,2-b]pyridazin-3-yl)-3-hydroxyazetidine-1-carboxamide] |
| < 2.5 nM | 1.3 nM | 3.3 nM | 9.9 nM | 1.6 nM | 1 nM | 3.6 nM | 14.9 nM | 21 nM | < 0.5 nM | 15.6 nM | NC(=O)c1cnn2ccc(N3CCC[C@@H]3c3cc(F)ccc3F)nc12 [Compound 12, (R)-5-(2-(2,5-difluorophenyl)pyrrolidin-1-yl)pyrazolo[1,5-a]pyrimidine-3-carboxamide] |
| 3.1 nM | 132 nM | 10.6 nM | 177 nM | 70.8 nM |  |  |  |  |  |  | CNC(=O)Nc1cnc2ccc(N3CCC[C@@H]3c3cc(F)ccc3F)nn12 [Compound 4, (R)-1-(6-(2-(2,5-difluorophenyl)pyrrolidin-1-yl)imidazo[1,2-b]pyridazin-3-yl)-3-methylurea] |
| < 2.5 nM | 34.1 nM | 4.5 nM | 37.6 nM | 23.1 nM |  |  |  |  |  |  | CN(C)C(=O)Nc1cnc2ccc(N3CCC[C@@H]3c3cc(F)ccc3F)nn12 [Compound 2, (R)-3-(6-(2-(2,5-difluorophenyl)pyrrolidin-1-yl)imidazo[1,2-b]pyridazin-3-yl)-1,1-dimethylurea] |
